The results in this text go back to patent US7741486B1, “Water-soluble titanium alkoxide material” (Sandia Corporation, priority 2008, dated 2010).

This series is classed as physicochemical. The source says:
The bidentate nature of the OC6H6N (referred to herein as OPy) group, the steric bulk of the OC6H2(CH2N(CH3)2)3-2,4,6 (referred to herein as TAP) ligand, and the amino functionality of the OC6H2(CH2N(CH3)2)3-2,4,6 ligand combine to effectively limit conventional hydrolysis of the alkoxide while maintaining solubility in aqueous media. Therefore, unlike many other similar compounds, the compound of the present invention is both water soluble and stable in an aqueous solution.
The inhibition of hydrolysis at ligand sites even when the molecule is dispersed in water is attributed to steric constraints imposed by the bidentate pyridine carbinoxide (OPy) and monodentate tri-amino-phenoxide (TAP) groups. It is believed that the amino groups present on the TAP ligand further facilitate water solubilization through H-bonding with the water. The inert character of the molecule to conventional hydrolysis chemistry enables an evaluation of photoexcitation as a means to influence the evolution of intermolecular bond formation.

The structures appear in SMILES notation.

Turning to `CN(C)Cc1cc(CN(C)C)c([O][Ti]([O]Cc2ccccn2)([O]Cc2ccccn2)[O]c2c(CN(C)C)cc(CN(C)C)cc2CN(C)C)c(CN(C)C)c1` [(OC6H6N)2Ti(OC6H2(CH2N(CH3)2)3-2,4,6)2], the “stability in aqueous solution (resistance to conventional hydrolysis)” value is listed as “water-stable” and the water solubility result was “water-soluble”.
